Assay results: patent publication US12295955B2, “TTP phosphorylation for the identification of personalized medicines” (KING FAISAL SPECIALIST HOSPITAL & RESEARCH CENTRE, priority 2019, dated 2025)

Assays:
[1] = test system: phosphorylated TTP/ZFP36; assay: Western blotting of TTP/ZFP36 phosphorylation in cells treated with kinase inhibitor volasertib; type: cell-based
Protocol: The cells were lysed in a mixture of 0.5% NP40 buffer, protease inhibitor and phosphatase inhibitor. The calf intestinal alkaline phosphatase (CIP, Promega, Madison, WI, USA) was used to verify the phosphorylation status of TTP/ZFP36, 20 units were added to the cell lysate (per 250 ul). The cell lysates were loaded and subjected to electrophoresis on 4-12% NuPAGE Bis-Tris gel (Invitrogen, Foster City, CA, USA). Then, the proteins were transferred from the gel to nitrocellulose membranes (Hybond ECL; Amersham Biosciences, Piscataway, NJ) in the presence of NuGAGE 20× transfer buffer (Invitrogen, Foster City, CA, USA). After blocking, membranes were incubated with primary antibodies diluted in 5% bovine serum albumin (BSA) (Sigma-Aldrich, St Louis, MO) at 4° C. overnight. For TTP/ZFP36, a custom-made affinity purified TTP polyclonal antibody and against C-terminal end of TTP and was used previously. This antibody is specific to TTP/ZFP36, but not the ortholog: ZFP36L1 when using 0.5% NP40 buffer instead of Laemmli buffer. Other antibodies are: anti-PLK1 (dilution 1:1000, Cell signaling, Massachusetts, USA), anti-GAPDH (dilution 1:500, Abcam, MA, USA), anti-HA, dilution 1:5000, Roche, Upper Bavaria, Germany). Thereafter, the membranes were incubated with corresponding secondary antibodies (diluted in 5% BSA, 1:2000 dilution) (Santa Cruz Biotech, Santa Cruz, CA) for 1-3 hrs. Protein bands were detected using ECL Western blotting detection reagents (Amersham Biosciences, Amersham, UK) in Molecular Imager ChemiDoc machine (BioRad, Hercules, CA, USA).
An exemplary kinase inhibitor, namely volasertib, was tested for the effects on the level of phosphorylation of TTP. […] The maximum dosage tested was 300 nM, and the lowest tested dose was 10 nM and was still effective (FIG. 2A). […] There was no change in the mobility of ZFP36 as observed with CIP treatment, indicating a partial, rather than complete de-phosphorylation event (as with CIP).

[2] = test system: MDA-MB-231 xenografts; assay: MDA-MB-231 xenograft tumor growth in nude mice; type: in vivo
Protocol: (§1) FIGS. 4A-4B show kinase inhibition in mice and reduction in TTP phosphorylation. • 4A) PLK1 inhibition and tumor size in mice; MDA-MB-231 xenografts were injected into the mammary fat pad of female nude mice; when tumors become palpable, mice were treated with either volasertib (10 mg/kg) or vehicle twice weekly. The tumor size was calculated as described in Methods. Data are Mean±SEM from a nine-mouse experiment as indicated. Two-way ANOVA was performed for overall effect with Sidak's multiple comparison test (*p<0.05, **** p<0.0001). 4B) The effect of volasertib on TTP/ZFP36 phosphorylation; WB of tumor tissues from each mouse as probed with anti-TTP/ZFP36 or GAPDH as the loading control.
Nude mice were purchased from Jackson Laboratories (Bar Harbor, Maine, USA). The mice were housed at the animal facility at King Faisal Specialist Hospital and Research Center (KFSHRC) and maintained in accordance with protocols approved by the institution Animal Care and Use Committee. […] Tumor growth was measured by caliper, and the volume was calculated by the formula (π/6×L×M2), where L and M refer to the large and small diameters of each tumor, respectively. Mice weight and tumor size were recorded weekly. […]

[3] = test system: phosphorylated TTP/ZFP36; assay: Western blotting of phosphorylated TTP/ZFP36 in excised xenograft tumor tissues; set-up: species or system nude mice; conditions: 10 mg/kg in vivo treatment, Western blot, FIG. 4B
Protocol: as §1
The cells were lysed in a mixture of 0.5% NP40 buffer, protease inhibitor and phosphatase inhibitor. […] Protein bands were detected using ECL Western blotting detection reagents (Amersham Biosciences, Amersham, UK) in Molecular Imager ChemiDoc machine (BioRad, Hercules, CA, USA).
Nude mice were purchased from Jackson Laboratories (Bar Harbor, Maine, USA). […] Tumor growth was measured by caliper, and the volume was calculated by the formula (π/6×L×M2), where L and M refer to the large and small diameters of each tumor, respectively. Mice weight and tumor size were recorded weekly. […]

[4] = test system: uPA; assay: Western blotting of uPA protein (TTP target) after volasertib; type: cell-based; conditions: volasertib 330 nM time course, FIG. 2C
Protocol: The cells were lysed in a mixture of 0.5% NP40 buffer, protease inhibitor and phosphatase inhibitor. The calf intestinal alkaline phosphatase (CIP, Promega, Madison, WI, USA) was used to verify the phosphorylation status of TTP/ZFP36, 20 units were added to the cell lysate (per 250 ul). The cell lysates were loaded and subjected to electrophoresis on 4-12% NuPAGE Bis-Tris gel (Invitrogen, Foster City, CA, USA). Then, the proteins were transferred from the gel to nitrocellulose membranes (Hybond ECL; Amersham Biosciences, Piscataway, NJ) in the presence of NuGAGE 20× transfer buffer (Invitrogen, Foster City, CA, USA). After blocking, membranes were incubated with primary antibodies diluted in 5% bovine serum albumin (BSA) (Sigma-Aldrich, St Louis, MO) at 4° C. overnight. For TTP/ZFP36, a custom-made affinity purified TTP polyclonal antibody and against C-terminal end of TTP and was used previously. This antibody is specific to TTP/ZFP36, but not the ortholog: ZFP36L1 when using 0.5% NP40 buffer instead of Laemmli buffer. Other antibodies are: anti-PLK1 (dilution 1:1000, Cell signaling, Massachusetts, USA), anti-GAPDH (dilution 1:500, Abcam, MA, USA), anti-HA, dilution 1:5000, Roche, Upper Bavaria, Germany). […] Protein bands were detected using ECL Western blotting detection reagents (Amersham Biosciences, Amersham, UK) in Molecular Imager ChemiDoc machine (BioRad, Hercules, CA, USA). […]

[5] = test system: phosphorylated TTP; assay: Phosphorylated TTP level in ERBB2 overexpressing SKBR3 cells treated with ERBB2 inhibitor; type: cell-based; conditions: SKBR3 breast cancer cell line, FIG. 6B
[6] = dose response, 10 nM to 300 nM, Western blot, FIG. 2A
[7] = time course, volasertib 330 nM, FIG. 2B

Row | SMILES | lowest tested dose still effective on TTP / phosphorylated TTP abundance ([1]; FIG. 2A) [nM] | change in the mobility of ZFP36 (partial rather than complete de-phosphorylation) ([1]; compared with CIP treatment) | abundance of phosphorylated TTP [1, 6] | abundance of total TTP [1, 6] | time after treatment at which effect on phosphorylated TTP is first observed [1, 7] [h] | time after treatment of maximal effect on phosphorylated TTP [1, 7] [h] | tumor growth versus control group ([2]; 10 mg/kg intraperitoneal twice a week, female nude mice, FIG. 4A upper panel) | difference in tumor volume versus vehicle ([2]; 10 mg/kg twice a week, after 4 weeks of treatment, FIG. 4A lower panel) | phosphorylated TTP/ZFP36 levels in excised tumor tissues versus control [3] | abundance of the uPA protein [4] | levels of phosphorylated TTP [5]
1 | CC[C@@H]1C(=O)N(C)c2cnc(Nc3ccc(C(=O)N[C@H]4CC[C@H](N5CCN(CC6CC6)CC5)CC4)cc3OC)nc2N1C(C)C [volasertib] | 10 | no change | reduced in a dose-dependent manner | reduced in a dose-dependent manner | 2 | 8 | slower growth rate and began to regress by the end of the experiment | statistically significant difference | markedly reduced | reduced | 
2 | CS(=O)(=O)CCNCc1ccc(-c2ccc3ncnc(Nc4ccc(OCc5cccc(F)c5)c(Cl)c4)c3c2)o1 [lapatinib] |  |  |  |  |  |  |  |  |  |  | reduce the levels of phosphorylated TTP
